Patent US20230399312A1, “SUBSTITUTED PYRIMIDINES AND METHODS OF USE” (THERAVANCE BIOPHARMA R&D IP, LLC, priority 2020, published 2023)

How the values were obtained:
[1] = target: T1, recombinant human ALK5 (TGF-βR1) protein (Homo sapiens, UniProt P36897); assay: Biochemical ALK5 (TGF-βR1) assay to measure pKi (LANCE Ultra ULight kinase assay); conditions: apparent pKi, converted from pIC50 by Cheng-Prusoff
T1 construct: purchased Life Technologies PR9075A
T1 sequence (P36897 34-503): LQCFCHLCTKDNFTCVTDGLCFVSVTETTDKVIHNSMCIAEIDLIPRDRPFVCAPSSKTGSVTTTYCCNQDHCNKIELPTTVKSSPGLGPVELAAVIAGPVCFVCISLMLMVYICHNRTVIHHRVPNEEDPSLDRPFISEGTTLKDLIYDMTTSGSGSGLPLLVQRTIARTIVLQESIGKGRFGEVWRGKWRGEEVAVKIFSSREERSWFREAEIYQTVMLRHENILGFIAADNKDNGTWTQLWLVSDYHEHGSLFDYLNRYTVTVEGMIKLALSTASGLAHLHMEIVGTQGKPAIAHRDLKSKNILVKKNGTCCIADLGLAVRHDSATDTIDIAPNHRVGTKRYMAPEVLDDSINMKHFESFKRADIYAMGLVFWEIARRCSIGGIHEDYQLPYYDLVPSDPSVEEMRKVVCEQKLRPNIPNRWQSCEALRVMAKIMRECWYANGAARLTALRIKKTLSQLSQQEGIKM
In short: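 Enzyme was preincubated with compound for 60 min at room temperature, then ATP (added from a 125 μM 5× stock with 2 mM DTT) started a 60 min reaction at 37 °C. EDTA plus Eu-anti-phospho-Topo2α (Thr1342) antibody stopped it; TR-FRET pIC50 values were converted to pKi by Cheng-Prusoff.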

[2] = tested on: TGF-β-stimulated SMAD3 phosphorylation in BEAS-2B cells; assay: Cellular ALK5 potency assay, inhibition of TGF-β stimulated pSMAD3 formation in BEAS-2B cells; type: cell-based; conditions: Homo sapiens, pSMAD3, TGF-β 10 ng/mL, read-out: BEAS2B pIC50 (converted)
In short: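 Potency is expressed as pIC50, based on dose-dependent reduction of TGF-β-induced pSMAD3 AlphaLISA signal relative to stimulated cells without compound. BEAS-2B cells received compound 1 h before a 30 min, 10 ng/mL TGF-β challenge.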

Structure (SMILES)	Ki [1]	IC50 [2]
Cc1cccc(-c2nccc(Nc3ccnc(Nc4ccc(N5CCN(C(C)C)CC5)cc4)n3)n2)n1 [Compound 189, N2-[4-(4-isopropylpiperazin-1-yl)phenyl]-N4-[2-(6-methyl-2-pyridyl)pyrimidin-4-yl]pyrimidine-2,4-diamine]	≤ 0.0316 nM	25.1 to 158 nM
CC(=O)N1CCN(c2cccc(Nc3nccc(Nc4ccnc(-c5cccc(C)n5)n4)n3)c2)CC1 [Compound 190, 1-[4-[3-[[4-[[2-(6-methyl-2-pyridyl)pyrimidin-4-yl]amino]pyrimidin-2-yl]amino]phenyl]piperazin-1-yl]ethanone]	0.0398 to 0.316 nM	25.1 to 158 nM
Cc1cccc(-c2nccc(Nc3ccnc(Nc4cc(N)c5c(c4)OCCO5)n3)n2)n1 [Compound 191, N2-(5-amino-2,3-dihydro-1,4-benzodioxin-7-yl)-N4-[2-(6-methyl-2-pyridyl)pyrimidin-4-yl]pyrimidine-2,4-diamine]	0.398 to 3.16 nM	25.1 to 158 nM
Cc1cccc(-c2nccc(Nc3ccnc(Nc4ccc(C5=CCNCC5)cc4)n3)n2)n1 [Compound 193, N4-[2-(6-methyl-2-pyridyl)pyrimidin-4-yl]-N2-[4-(1,2,3,6-tetrahydropyridin-4-yl)phenyl]pyrimidine-2,4-diamine]	0.0398 to 0.316 nM	≤ 20 nM
Cc1cccc(-c2nccc(Nc3ccnc(Nc4ccc(N5CCC(NCC(C)C)CC5)cc4)n3)n2)n1 [Compound 194, N2-[4-[4-(isobutylamino)-1-piperidyl]phenyl]-N4-[2-(6-methyl-2-pyridyl)pyrimidin-4-yl]pyrimidine-2,4-diamine]	0.0398 to 0.316 nM	25.1 to 158 nM
Cc1cccc(-c2nccc(Nc3ccnc(Nc4ccc(CN5CCC(C(=O)O[C@@H]6CCN(C)C6)C5)cc4)n3)n2)n1 (stereo partly drawn) [Compound 195, [(3R)-1-methylpyrrolidin-3-yl] 1-[[4-[[4-[[2-(6-methyl-2-pyridyl)pyrimidin-4-yl]amino]pyrimidin-2-yl]amino]phenyl]methyl] pyrrolidine-3-carboxylate]	0.0398 to 0.316 nM	25.1 to 158 nM
Cc1cccc(-c2nccc(Nc3ccnc(Nc4ccc(N5CCCNCC5)cc4)n3)n2)n1 [Compound 196, N2-[4-(1,4-diazepan-1-yl)phenyl]-N4-[2-(6-methyl-2-pyridyl)pyrimidin-4-yl]pyrimidine-2,4-diamine]	0.0398 to 0.316 nM	25.1 to 158 nM
Cc1cccc(-c2nccc(Nc3ccnc(Nc4ccc(CN5C6CCC5CNC6)cc4)n3)n2)n1 [Compound 197, N2-[4-(3,8-diazabicyclo[3.2.1]octan-8-ylmethyl)phenyl]-N4-[2-(6-methyl-2-pyridyl)pyrimidin-4-yl]pyrimidine-2,4-diamine]	0.0398 to 0.316 nM	25.1 to 158 nM
Cc1cccc(-c2nccc(Nc3ccnc(Nc4ccc5c(c4)CN(C(C)C)CC5)n3)n2)n1 [Compound 198, N2-(2-isopropyl-3,4-dihydro-1H-isoquinolin-7-yl)-N4-[2-(6-methyl-2-pyridyl)pyrimidin-4-yl]pyrimidine-2,4-diamine]	0.0398 to 0.316 nM	25.1 to 158 nM
Cc1cccc(-c2nccc(Nc3ccnc(Nc4ccc(NC5CNC5)cc4)n3)n2)n1 [Compound 199, N2-[4-(azetidin-3-ylamino)phenyl]-N4-[2-(6-methyl-2-pyridyl)pyrimidin-4-yl]pyrimidine-2,4-diamine]	0.0398 to 0.316 nM	25.1 to 158 nM
Cc1cccc(-c2nccc(Nc3ccnc(Nc4ccc(CN5CCN[C@@H](C(=O)O)C5)cc4)n3)n2)n1 [Compound 200, (2R)-4-[[4-[[4-[[2-(6-methyl-2-pyridyl)pyrimidin-4-yl]amino]pyrimidin-2-yl]amino]phenyl]methyl] piperazine-2-carboxylic acid]	0.0398 to 0.316 nM	200 to 1260 nM
COC(=O)C1CN(Cc2ccc(Nc3nccc(Nc4ccnc(-c5cccc(C)n5)n4)n3)cc2)CCN1C (stereo not drawn) [Compound 201, methyl 1-methyl-4-[[4-[[4-[[2-(6-methyl-2-pyridyl)pyrimidin-4-yl]amino]pyrimidin-2-yl]amino]phenyl]methyl] piperazine-2-carboxylate]	0.398 to 3.16 nM	25.1 to 158 nM
Cc1cccc(-c2nccc(Nc3ccnc(Nc4ccc(N(C)CC5CNC5)cc4)n3)n2)n1 [Compound 202, N2-(4-((azetidin-3-ylmethyl)(methyl)amino)phenyl)-N4-(2-(6-methylpyridin-2-yl)pyrimidin-4-yl)pyrimidine-2,4-diamine]	0.0398 to 0.316 nM	25.1 to 158 nM
Cc1cccc(-c2nccc(Nc3ccnc(Nc4cccc(NC(=O)C5(O)CCNC5)c4)n3)n2)n1 (stereo not drawn) [Compound 203, 3-hydroxy-N-[3-[[4-[[2-(6-methyl-2-pyridyl)pyrimidin-4-yl]amino]pyrimidin-2-yl]amino]phenyl]pyrrolidine-3-carboxamide]	0.0398 to 0.316 nM	≤ 20 nM
COC(=O)C1CNCCN1c1ccc(Nc2nccc(Nc3ccnc(-c4cccc(C)n4)n3)n2)cc1 (stereo not drawn) [Compound 204, methyl 1-[4-[[4-[[2-(6-methyl-2-pyridyl)pyrimidin-4-yl]amino]pyrimidin-2-yl]amino]phenyl]piperazine-2-carboxylate]	0.0398 to 0.316 nM	25.1 to 158 nM
Cc1cccc(-c2nccc(Nc3ccnc(Nc4ccc(N5CCNCC5)c(CC(=O)OCC(C)C)c4)n3)n2)n1 [Compound 205, isobutyl 2-[5-[[4-[[2-(6-methyl-2-pyridyl)pyrimidin-4-yl]amino]pyrimidin-2-yl]amino]-2-piperazin-1-yl-phenyl]acetate]	0.0398 to 0.316 nM	25.1 to 158 nM
Cc1cccc(-c2nccc(Nc3ccnc(Nc4csc(NC(=O)C5(CO)CNC5)c4)n3)n2)n1 [Compound 206, 3-(hydroxymethyl)-N-[4-[[4-[[2-(6-methyl-2-pyridyl)pyrimidin-4-yl]amino]pyrimidin-2-yl]amino]-2-thienyl]azetidine-3-carboxamide]	0.0398 to 0.316 nM	200 to 1260 nM
Cc1cccc(-c2nccc(Nc3ccnc(Nc4cc(C(=O)OC5CNC5)cs4)n3)n2)n1 [Compound 207, azetidin-3-yl 5-[[4-[[2-(6-methyl-2-pyridyl)pyrimidin-4-yl]amino]pyrimidin-2-yl]amino]thiophene-3-carboxylate]	0.0398 to 0.316 nM	25.1 to 158 nM
Cc1cccc(-c2nccc(Nc3ccnc(Nc4ccc(S(=O)(=O)NCCN)cc4)n3)n2)n1 [Compound 208, N-(2-aminoethyl)-4-[[4-[[2-(6-methyl-2-pyridyl)pyrimidin-4-yl]amino]pyrimidin-2-yl]amino]benzenesulfonamide]	≤ 0.0316 nM	≤ 20 nM
Cc1cccc(-c2nccc(Nc3ccnc(Nc4ccc(NC(=O)C5(CO)CNC5)cc4)n3)n2)n1 [Compound 209, 3-(hydroxymethyl)-N-(4-((4-((2-(6-methylpyridin-2-yl)pyrimidin-4-yl)amino)pyrimidin-2-yl)amino)phenyl)azetidine-3-carboxamide]	0.0398 to 0.316 nM	≤ 20 nM
Cc1cccc(-c2nccc(Nc3ccnc(Nc4ccc(CN5CCC[C@H](C(=O)O[C@H]6CCN(C)C6)C5)cc4)n3)n2)n1 [Compound 210, [(3S)-1-methylpyrrolidin-3-yl] (3S)-1-[[4-[[4-[[2-(6-methyl-2-pyridyl)pyrimidin-4-yl]amino]pyrimidin-2-yl]amino]phenyl]methyl] piperidine-3-carboxylate]	0.0398 to 0.316 nM	≤ 20 nM
